Experimental findings from ChEMBL document CHEMBL6078664, “Abietane Diterpenoids from the Rhizomes of Kaempferia roscoeana and Their Anti-Inflammatory Activities” (J Nat Prod, 2024) are described below.

Broadly, the IC50 is the concentration needed to halve the response being measured.

The subject of assay [1] is RAW264.7. The assay is described as follows: Antiinflammatory activity in LPS-induced mouse RAW264.7 cells assessed as inhibition of NO production preincubated for 1 hr followed by LPS stimulation and measured after 24 hrs by microplate reader based analysis. Type of assay: functional, cell-based.
Assay [2] concerns RAW264.7. Nature of the assay: Cytotoxicity against mouse RAW264.7 cells incubated for 24 hrs by MTT assay. In kind it is functional, cell-based. Conditions: RAW264.7, 24 h.

In the case of `CO[C@@H]1O[C@]23C=C(C(C)C)CC[C@]2(O)[C@]12CCCC(C)(C)[C@@H]2CC3`, the IC50 was 4.1 µM in assay [1] and above 50 µM in assay [2].
Regarding `CC(C)C1=CC2=CC[C@H]3C(C)(C)CCC[C@]3(C=O)[C@@]2(O)CC1`, the IC50 was 4.3 µM in assay [1] and above 50 µM in assay [2].
Regarding `CC(C)[C@]1(O)C=C2CC[C@H]3C(C)(C)CCC[C@]3(C)[C@@]2(O)CC1`, the values for the IC50 in assay [1] and in assay [2] were 3.6 µM and above 50 µM, respectively.
For the compound `CC(C)C1=C[C@@]23CC[C@H]4C(C)(C)CCC[C@]4([C@H](O)O2)[C@@]3(O)CC1`, the IC50 in assay [1] and in assay [2] was above 50 µM throughout.
On to `CC(C)C1=C[C@]23OC[C@@]4(CCCC(C)(C)[C@@H]4C[C@H]2O)[C@@]3(O)CC1`, for which the IC50 in assay [1] is 20 µM; in assay [2], above 50 µM.
On to `C[C@@H]1C[C@H]2[C@@H]3CCC4=CC(=O)C=C[C@]4(C)[C@@]3(F)[C@@H](O)C[C@]2(C)[C@@]1(O)C(=O)CO` [DEXAMETHASONE], for which the values for the IC50 in assay [1] and in assay [2] were 0.3 µM and above 50 µM, respectively.
The corresponding values for `CC(C)C1=C[C@@]23CC[C@H]4C(C)(C)CCC[C@]4(CO2)[C@@]3(O)CC1` are 36.8 µM and 44.4 µM.
In the same order, the values of `CC(C)[C@]1(O)C=C2[C@H](O)C[C@H]3C(C)(C)CCC[C@]3(C)[C@@]2(O)CC1` are 13.7 µM and above 50 µM.
